Test results reported in ChEMBL document CHEMBL3507680, “University of Dundee, Gates Library screen for HepG2 cell viability”.

Assay: Human HepG2 cell viability assay in 384 well format
Assay type: toxicity, cell-based
Design: dose 125 nL, time 70.5 hour; cytotoxicity at 70.5 h: concentration not given beside the values
Conditions: HepG2 cells, read-out: Inhibition

With `CCC(CO)N(C/C(C)=C/c1ccco1)Cc1ccccn1` (stereo unspecified) the cytotoxicity at 70.5 h was -6%.
In the case of `Cc1ccc(-c2cnnc(N3CCCC3c3nonc3C)n2)o1` (stereo unspecified), the cytotoxicity at 70.5 h is reported as -3.66%.
Molecule `OC1(CNCCN2CCCc3ccccc32)CCNC1` (stereo unspecified) has a cytotoxicity at 70.5 h of -11.6%.
In the case of `Cc1n[nH]c(C)c1CN(C)C(C(=O)O)c1c(F)cccc1OC(C)C` (stereo unspecified), the cytotoxicity at 70.5 h is reported as -4.07%.
Molecule `COCc1ncn(Cc2nc(-c3ccc(OC)cc3F)oc2C)n1` has a cytotoxicity at 70.5 h of 51.2%.
In the case of `CC(C)n1cc(C(=O)NCCCc2csc(N)n2)cn1`, the cytotoxicity at 70.5 h is reported as -9.21%.
Work on `CCc1cc(NC2CCS(=O)(=O)C2)nc(N2CCCCC2)n1` (stereo unspecified) yielded a cytotoxicity at 70.5 h of -3.25%.
`CN1CCc2[nH]cnc2C12CCN(C(=O)CCc1cccs1)CC2` gave a cytotoxicity at 70.5 h of 16.8%.
For `CCc1nccn1CCNC1CCN(c2nc3ccc(Cl)cc3s2)CC1`, the cytotoxicity at 70.5 h was 40.5%.
With `Cc1c(CN2CCc3[nH]cnc3C2C(=O)O)[nH]c2ccc(F)cc12` (stereo unspecified) the cytotoxicity at 70.5 h was -20.3%.
`CSc1ccc(-c2nc(CN3CCC(C(N)=O)CC3)c(C)o2)cc1` gave a cytotoxicity at 70.5 h of -6.77%.
For `CCCNC(=O)N1CCc2ccc(S(=O)(=O)N3CCN(C)CC3)cc2C1`, the cytotoxicity at 70.5 h was -16.2%.
For `Cc1cc(C)c2ncn(CC(C)(C)CO)c(=O)c2c1`, the cytotoxicity at 70.5 h was -6.8%.
In the case of `COc1ccc(Cl)cc1CN(C)C(=O)CN1C(=O)OC[C@@H]1C(C)C`, the cytotoxicity at 70.5 h is reported as -6.97%.
For `Cc1ccnn1CCC(=O)N1CCN(C2CCc3ccccc3C2)CC1` (stereo unspecified), the cytotoxicity at 70.5 h was -12.6%.
With `CCC(Nc1nc(C2CCCC2)nc2c1cnn2C)c1ccncc1` (stereo unspecified) the cytotoxicity at 70.5 h was 8.01%.
`CCCc1ccc(C(C)Nc2ncnc3c2CCNC3)cc1` (stereo unspecified) showed a cytotoxicity at 70.5 h of -2.09%.
`CS(=O)(=O)CC1CCCN(C(=O)Cn2cccc(C(F)(F)F)c2=O)C1` (stereo unspecified) showed a cytotoxicity at 70.5 h of 6.87%.
Work on `CCCc1nc(CN(CC)Cc2ccc(O)c(C(=O)O)c2)no1` yielded a cytotoxicity at 70.5 h of -8.69%.
Work on `Cc1cnn(CCCn2ncc(N3CCC(CN)C3)cc2=O)c1` (stereo unspecified) yielded a cytotoxicity at 70.5 h of 9.78%.
In the case of `O=C(CCN1CCCCO1)NCc1cn2c(n1)SCC2`, the cytotoxicity at 70.5 h is reported as -0.977%.
`CN(C)S(=O)(=O)NC1CCCc2c1cnn2-c1ccc(C(C)(C)C)cc1` (stereo unspecified) showed a cytotoxicity at 70.5 h of -2.4%.
For `Cc1cn(CC(=O)Nc2cc(C(C)(C)C)nn2C)cn1`, the cytotoxicity at 70.5 h was -5.53%.
`CCc1[nH]c2c(CNc3nccc(N)n3)cc(C)cc2c1C` showed a cytotoxicity at 70.5 h of 23.9%.
With `Cc1cc(N2Cc3cnc(CC(C)C)nc3C2)nc(N)n1` the cytotoxicity at 70.5 h was 0.669%.
`CCN(C)C[C@@H]1CN(C(=O)c2cc(C(F)(F)F)n[nH]2)C[C@@H]1CO` showed a cytotoxicity at 70.5 h of -10%.
Molecule `O=C(CCCNCc1ccccc1)N1CCCn2cncc2C1` has a cytotoxicity at 70.5 h of -4.58%.
`CCCc1nc(N2CCCN(c3ccncc3)CC2)c2cnn(C)c2n1` showed a cytotoxicity at 70.5 h of -11.6%.
For `CSc1nc(N)cc(N2C[C@@H]3CC[C@H](C2)N(Cc2cscn2)C3=O)n1`, the cytotoxicity at 70.5 h was 7.64%.
In the case of `CCc1nc(CCn2cc(-c3nccn3C)nn2)no1`, the cytotoxicity at 70.5 h is reported as -9.68%.
For `Cc1n[nH]c(CN2CCN(C(=O)C3CCC3)[C@@H]3CS(=O)(=O)C[C@@H]32)n1`, the cytotoxicity at 70.5 h was 0.743%.
In the case of `COc1ccc(-c2noc(-c3ccc(N4CCC[C@H]4CO)nc3)n2)cc1`, the cytotoxicity at 70.5 h is reported as 10.2%.
Molecule `Cc1ccnn1CC(=O)N(C)Cc1ccc(-n2cccn2)cc1` has a cytotoxicity at 70.5 h of -7.33%.
`N[C@H]1CN(C(=O)c2ccc3[nH]c(=O)c(=O)[nH]c3c2)C[C@@H]1c1ccccc1` gave a cytotoxicity at 70.5 h of -16.1%.
In the case of `Cc1[nH]nc(CCC(=O)N2CCc3c(nc[nH]c3=O)C2)c1C`, the cytotoxicity at 70.5 h is reported as -15.9%.
Work on `OCCC[C@@H]1CN(c2ncc(Cl)cc2Cl)CC[C@@H]1N1CCOCC1` yielded a cytotoxicity at 70.5 h of 3.21%.
With `CN(C)CCN1CC(C(=O)N2CCC(c3cccc(O)c3)CC2)CC1=O` (stereo unspecified) the cytotoxicity at 70.5 h was 2.7%.
`CC(C)(C)N1CC(C(=O)NCc2cn3cccnc3n2)CC1=O` (stereo unspecified) showed a cytotoxicity at 70.5 h of -5.98%.
`Cc1cc(NC2CCC(=O)N(C)C2)n2nccc2n1` (stereo unspecified) showed a cytotoxicity at 70.5 h of -9.21%.
`CN1CCNC(=O)C12CCN(C(=O)c1ccc3[nH]c(=O)[nH]c3c1)CC2` gave a cytotoxicity at 70.5 h of -7.66%.
`c1ccc(CCN2CCN(C3CCOC4(CCOCC4)C3)CC2)nc1` (stereo unspecified) gave a cytotoxicity at 70.5 h of -9.08%.
Molecule `CCN(CC)CCC(=O)N1CCc2c(nc(N(C)C)nc2N(C)C)C1` has a cytotoxicity at 70.5 h of 29.3%.
In the case of `CCCc1nc(C)cc(NC(C)Cc2cnccn2)n1` (stereo unspecified), the cytotoxicity at 70.5 h is reported as -10.8%.
`CCOCCNCc1cc(O)c2cc(C)ccc2n1` showed a cytotoxicity at 70.5 h of -5.02%.
In the case of `Cn1ncc(N2CCOC(CCNC(=O)CO)C2)cc1=O` (stereo unspecified), the cytotoxicity at 70.5 h is reported as 13.3%.
`COCCN1CCN(Cc2cccnc2)[C@H]2CS(=O)(=O)C[C@H]21` showed a cytotoxicity at 70.5 h of 21.4%.
For `COCCN1CCCC2(CCN(c3nc(C)nc4ccsc34)C2)C1=O` (stereo unspecified), the cytotoxicity at 70.5 h was -11.8%.
Molecule `COc1cccn(CC(=O)N2CCCC3(CCOCC3)C2)c1=O` has a cytotoxicity at 70.5 h of -1.15%.
With `Cc1cc(-c2nccn2CCN2CCCCC2CO)oc1C` (stereo unspecified) the cytotoxicity at 70.5 h was -5.85%.
`O=C(c1ncc[nH]1)N1CCC(n2cc(-c3ccccn3)nn2)CC1` showed a cytotoxicity at 70.5 h of 0.522%.
For `CCN(C)C[C@@H]1CN(S(=O)(=O)c2cccc(C#N)c2)C[C@@H]1CO`, the cytotoxicity at 70.5 h was -5.18%.
Molecule `O=C(NCc1ccc2c(c1)CCCO2)C1CNCCO1` (stereo unspecified) has a cytotoxicity at 70.5 h of 48.5%.
Work on `CN1C[C@@H](N)C[C@H]1C(=O)N1CCC(Cc2ccc(F)cc2)CC1` yielded a cytotoxicity at 70.5 h of 0.737%.
With `COCc1noc(CN2CCCCC2CCc2cccs2)n1` (stereo unspecified) the cytotoxicity at 70.5 h was -14.8%.
`CCCOC1CCCN(c2nc(CC)nc3c2cnn3C)C1` (stereo unspecified) gave a cytotoxicity at 70.5 h of -10.7%.
Molecule `N[C@@H]1CC[C@H](C(=O)NCc2ccc3nonc3c2)C1` has a cytotoxicity at 70.5 h of -13.2%.
